# Starred links: 1 amine or outer side, 2 acyl side, 3 side chain; linkers in the order of their positions; H or OH if unused. Positions of bridges follow the written chain, without caps; N, C: chain ends. Non-standard residues stand in square brackets, D forms with d. Residues, ends and D or L forms follow the SMILES beside them. Phe(3,5-F2) = N[C@@H](Cc1cc(F)cc(F)c1)C(=O)O; CH2COCH2 = O=C(C[*:1])C[*:2]
# Assays:
# [1] = two-component Cys/Cys stapling: bis-thiol-Michael addition to 4,6-divinylpyrimidine bearing N-methylglycine (constraint 1 = A), 1.1 equiv; TCEP 1.1 equiv added if the peptide had oxidised; details: the molecule shown is the open-chain precursor, 100 mM phosphate buffer pH 7.4 with DMSO from peptide and staple stocks, 2.8 mM, 22.0 °C, 2 steps
# [2] = two-component Cys/Cys stapling: bis-thioether alkylation with 1,3-dichloroacetone (B), 1.1 equiv; TCEP 1.1 equiv added if the peptide had oxidised; details: the molecule shown is the open-chain precursor, 100 mM phosphate buffer pH 7.4 with DMSO (peptide stock) and MeCN (staple stock), 2.7 mM, 22.0 °C, 2 steps
# Sa.ClpP = biological target: T1, Sa.ClpP (Staphylococcus aureus, UniProt Q2G036); assay: Thermal shift assay (differential scanning fluorimetry); type: binding; details: S. aureus ClpP 5 µM, ligand 200 µM, HEPES 100 mM pH 7, NaCl 150 mM, sypro orange 5x, 30-90 °C in 0.5 °C increments; mean ± SD of duplicates of at least two independent experiments
# T1 construct: Strep-tag (C); made in house; host or cells: E. coli SG1146a (lacks endogenous ClpP)
# Description: All concentrations are given as final concentrations. […]
# real-time qPCR (Bio-Rad CF X96).
# SD of duplicates of at least two independent experiments.
# equilibrated Superdex 200 Increase 10/300 GL column (Cytiva). […]
# T1 sequence (Q2G036 whole entry): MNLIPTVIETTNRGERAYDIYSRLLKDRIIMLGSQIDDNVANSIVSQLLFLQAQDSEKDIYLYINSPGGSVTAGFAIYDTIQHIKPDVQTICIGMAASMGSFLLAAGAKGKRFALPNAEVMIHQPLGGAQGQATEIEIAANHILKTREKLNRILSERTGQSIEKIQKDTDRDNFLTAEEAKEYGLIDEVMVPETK
compound,measurement,setting,value
C=Cc1cc(CCSC[C@H](NC(C)=O)C(=O)NCC(=O)N[C@H](C(=O)NCC(=O)N[C@@H](C)C(=O)NCC(=O)N[C@@H](CS)C(N)=O)[C@@H](C)CC)nc(N(C)CC(=O)O)n1 [Ac-Cys-Gly-Ile-Gly-Ala-Gly-Cys-NH2],"ring closure, yield over several steps",[1]; 30-membered ring,90.6%
CC[C@H](C)[C@H](NC(=O)CNC(=O)[C@H](CSCC(=O)CCl)NC(C)=O)C(=O)NCC(=O)N[C@@H](C)C(=O)NCC(=O)N[C@@H](CS)C(N)=O [Ac-Cys-Gly-Ile-Gly-Ala-Gly-Cys-NH2],"ring closure, yield over several steps",[2]; 26-membered ring,18.4%
C=Cc1cc(CCSC[C@H](NC(C)=O)C(=O)NCC(=O)N[C@H](C(=O)NCC(=O)N[C@H](Cc2ccccc2)C(=O)NCC(=O)N[C@@H](CS)C(N)=O)[C@@H](C)CC)nc(N(C)CC(=O)O)n1 [Ac-Cys-Gly-Ile-Gly-D-Phe-Gly-Cys-NH2],"ring closure, yield over several steps",[1]; 30-membered ring,61%
CC[C@H](C)[C@H](NC(=O)CNC(=O)[C@H](CSCC(=O)CCl)NC(C)=O)C(=O)NCC(=O)N[C@H](Cc1ccccc1)C(=O)NCC(=O)N[C@@H](CS)C(N)=O [Ac-Cys-Gly-Ile-Gly-D-Phe-Gly-Cys-NH2],"ring closure, yield over several steps",[2]; 26-membered ring,46.6%
"C=Cc1cc(CCSC[C@H](NC(C)=O)C(=O)NCC(=O)N[C@H](C(=O)NCC(=O)N[C@@H](Cc2cc(F)cc(F)c2)C(=O)NCC(=O)N[C@@H](CS)C(N)=O)[C@@H](C)CC)nc(N(C)CC(=O)O)n1 [Ac-Cys-Gly-Ile-Gly-Phe(3,5-F2)-Gly-Cys-NH2]","ring closure, yield over several steps",[1]; 30-membered ring,14.1%
"CC[C@H](C)[C@H](NC(=O)CNC(=O)[C@H](CSCC(=O)CCl)NC(C)=O)C(=O)NCC(=O)N[C@@H](Cc1cc(F)cc(F)c1)C(=O)NCC(=O)N[C@@H](CS)C(N)=O [Ac-Cys-Gly-Ile-Gly-Phe(3,5-F2)-Gly-Cys-NH2]","ring closure, yield over several steps",[2]; 26-membered ring,43.3%
C=Cc1cc(CCSC[C@H](NC(C)=O)C(=O)NCC(=O)N[C@H](C(=O)NCC(=O)N[C@@H](Cc2ccccc2)C(=O)NCC(=O)N[C@@H](C)C(=O)N[C@@H](CS)C(N)=O)[C@@H](C)CC)nc(N(C)CC(=O)O)n1 [Ac-Cys-Gly-Ile-Gly-Phe-Gly-Ala-Cys-NH2],"ring closure, yield over several steps",[1]; 33-membered ring,46.2%
CC[C@H](C)[C@H](NC(=O)CNC(=O)[C@H](CSCC(=O)CCl)NC(C)=O)C(=O)NCC(=O)N[C@@H](Cc1ccccc1)C(=O)NCC(=O)N[C@@H](C)C(=O)N[C@@H](CS)C(N)=O [Ac-Cys-Gly-Ile-Gly-Phe-Gly-Ala-Cys-NH2],"ring closure, yield over several steps",[2]; 29-membered ring,48.3%
C=Cc1cc(CCSC[C@H](NC(C)=O)C(=O)NCC(=O)N[C@H](C(=O)NCC(=O)N[C@@H](Cc2ccccc2)C(=O)NCC(=O)N[C@@H](C)C(=O)N[C@H](C(=O)N[C@@H](CS)C(N)=O)[C@@H](C)O)[C@@H](C)CC)nc(N(C)CC(=O)O)n1 [Ac-Cys-Gly-Ile-Gly-Phe-Gly-Ala-Thr-Cys-NH2],"ring closure, yield over several steps",[1]; 36-membered ring,34.3%
CC[C@H](C)[C@H](NC(=O)CNC(=O)[C@H](CSCC(=O)CCl)NC(C)=O)C(=O)NCC(=O)N[C@@H](Cc1ccccc1)C(=O)NCC(=O)N[C@@H](C)C(=O)N[C@H](C(=O)N[C@@H](CS)C(N)=O)[C@@H](C)O [Ac-Cys-Gly-Ile-Gly-Phe-Gly-Ala-Thr-Cys-NH2],"ring closure, yield over several steps",[2]; 32-membered ring,19%
C=Cc1cc(CCSC[C@H](NC(C)=O)C(=O)NCC(=O)N[C@H](C(=O)NCC(=O)N[C@@H](Cc2ccccc2)C(=O)NCC(=O)N[C@@H](CS)C(N)=O)[C@@H](C)CC)nc(N(C)CC(=O)O)n1 [Ac-Cys-Gly-Ile-Gly-Phe-Gly-Cys-NH2],"ring closure, yield over several steps",[1]; 30-membered ring,6.8%
CC[C@H](C)[C@H](NC(=O)CNC(=O)[C@H](CSCC(=O)CCl)NC(C)=O)C(=O)NCC(=O)N[C@@H](Cc1ccccc1)C(=O)NCC(=O)N[C@@H](CS)C(N)=O [Ac-Cys-Gly-Ile-Gly-Phe-Gly-Cys-NH2],"ring closure, yield over several steps",[2]; 26-membered ring,27.3%
C=Cc1cc(CCSC[C@H](NC(C)=O)C(=O)N[C@H](C(=O)NCC(=O)N[C@@H](Cc2ccccc2)C(=O)NCC(=O)N[C@@H](C)C(=O)N[C@@H](CS)C(N)=O)[C@@H](C)CC)nc(N(C)CC(=O)O)n1 [Ac-Cys-Ile-Gly-Phe-Gly-Ala-Cys-NH2],"ring closure, yield over several steps",[1]; 30-membered ring,25.7%
CC[C@H](C)[C@H](NC(=O)[C@H](CSCC(=O)CCl)NC(C)=O)C(=O)NCC(=O)N[C@@H](Cc1ccccc1)C(=O)NCC(=O)N[C@@H](C)C(=O)N[C@@H](CS)C(N)=O [Ac-Cys-Ile-Gly-Phe-Gly-Ala-Cys-NH2],"ring closure, yield over several steps",[2]; 26-membered ring,13.5%
C=Cc1cc(CCSC[C@H](NC(C)=O)C(=O)N[C@H](C(=O)NCC(=O)N[C@@H](Cc2ccccc2)C(=O)NCC(=O)N[C@@H](C)C(=O)N[C@H](C(=O)N[C@@H](CS)C(N)=O)[C@@H](C)O)[C@@H](C)CC)nc(N(C)CC(=O)O)n1 [Ac-Cys-Ile-Gly-Phe-Gly-Ala-Thr-Cys-NH2],"ring closure, yield over several steps",[1]; 33-membered ring,20.5%
CC[C@H](C)[C@H](NC(=O)[C@H](CSCC(=O)CCl)NC(C)=O)C(=O)NCC(=O)N[C@@H](Cc1ccccc1)C(=O)NCC(=O)N[C@@H](C)C(=O)N[C@H](C(=O)N[C@@H](CS)C(N)=O)[C@@H](C)O [Ac-Cys-Ile-Gly-Phe-Gly-Ala-Thr-Cys-NH2],"ring closure, yield over several steps",[2]; 29-membered ring,55.3%
C=Cc1cc(CCSC[C@H](NC(C)=O)C(=O)N[C@H](C(=O)NCC(=O)N[C@@H](Cc2ccccc2)C(=O)NCC(=O)N[C@@H](CS)C(N)=O)[C@@H](C)CC)nc(N(C)CC(=O)O)n1 [Ac-Cys-Ile-Gly-Phe-Gly-Cys-NH2],"ring closure, yield over several steps",[1]; 27-membered ring,75.6%
"CC[C@H](C)[C@@H]1NC(=O)CNC(=O)[C@@H](NC(C)=O)CSCC(=O)CSC[C@@H](C(N)=O)NC(=O)CNC(=O)[C@H](Cc2cc(F)cc(F)c2)NC(=O)CNC1=O [P9-B] (Ac-CGIG[Phe(3,5-F2)]GC-NH2; linker 1-7 via CH2COCH2)",apparent increase in melting temperature of Sa.ClpP,Sa.ClpP,1.1 ± 0.2 °C

# Reference: paper PMC10285738, “Identification of macrocyclic peptides which activate bacterial cylindrical proteases” (RSC Medicinal Chemistry, 2023)
